From ChEMBL document CHEMBL1142074, “In vitro activities of cloxyquin (5-chloroquinolin-8-ol) against Mycobacterium tuberculosis” (2007) come the findings set out here.

≈ marks a conversion by molar mass, not a printed value.

Format in all cases: functional
In test [1] the test system is Mycobacterium tuberculosis. Description: Antimycobacterial activity against Mycobacterium tuberculosis H37Ra ATCC 25177 by microplate alamar blue assay.
The test system of test [2] is Mycobacterium tuberculosis. The experiment in a line: Antimycobacterial activity against Mycobacterium tuberculosis isolates from pulmonary tuberculosis patient by microplate alamar blue assay.
Test [3] concerns Mycobacterium tuberculosis. The experiment in a line: Antimycobacterial activity against Mycobacterium tuberculosis H37Rv ATCC 27294 by microplate alamar blue assay.
In test [4] the test system is Mycobacterium tuberculosis. Description: Antimycobacterial activity against para-aminosalicylic acid-resistant Mycobacterium tuberculosis H37Rv ATCC 35821 by microplate alamar blue assay.

As for `Oc1c(Br)cc(Br)c2cccnc12` [BROXYQUINOLINE], in test [1], the minimal inhibitory concentration (MIC) was 6.25 µg/mL (≈ 20.6 µM).
`Cc1ccc2c(Cl)cc(Cl)c(O)c2n1` [CHLORQUINALDOL] gave an MIC in test [1] of 0.38 µg/mL (≈ 1.67 µM).
In the case of `Oc1c(I)cc(Cl)c2cccnc12` [CLIOQUINOL], in test [1], the MIC was 6.25 µg/mL (≈ 20.5 µM).
`Oc1ccc(Cl)c2cccnc12` [CLOXYQUIN] displayed an MIC50 in test [2] of 0.125 µg/mL (≈ 0.696 µM). In test [2], the MIC90 is 0.25 µg/mL (≈ 1.39 µM). The MIC in test [3], in test [1] and in test [4] was 0.125 µg/mL (≈ 0.696 µM) throughout.
Turning to `Oc1cccc2cccnc12` [OXYQUINOLINE], in test [1], the minimum inhibitory concentration (MIC) was 0.125 µg/mL (≈ 0.861 µM).
